Assay results from a melting point compilation (Tetko et al.; mined from patent text by program, amines drawn as free bases though some values may be those of a salt).

For `CCOC1=CC2=CCC3C(CCC4(C)C3CCC4(C)C(C)=O)C2(C)CC1` (centres undefined), the melting point was 114 to 116 °C. `CC(C)(C)NC(=O)C(O)c1cccc(Cl)c1` (centres undefined) gave a melting point of 93 to 99 °C. `CC(=O)OCc1ccc2oc(=O)c(C(=O)Oc3cncc(Cl)c3)cc2c1` gave a melting point of 153 to 155 °C. `Cc1cc(-c2ccc(NS(C)(=O)=O)cc2)cc2ccc(=O)[nH]c12` gave a melting point of 340 to 343 °C. Compound `COc1cc(C(=O)c2cccnc2)cc([N+](=O)[O-])c1O` has a melting point of 193 °C. Work on `CNC(=O)C#CCc1ccc(OC)cc1` yielded a melting point of 123 to 124 °C. `N#Cc1ccc(CCCCC(=O)O)cc1` gave a melting point of 101 to 102 °C. `O=C(O)C1=Cc2cc(Cl)cc(C#Cc3ccc(Cl)cc3)c2OC1C(F)(F)F` (centres undefined) showed a melting point of 210 to 211 °C. Work on `C/C(=C\c1ccc(C(=O)O)cc1)c1ccc2c(c1)SCCS2` yielded a melting point of 236 to 237 °C. `Cc1ncc2n1-c1ccc(Cl)cc1C(c1ccccc1F)N(N=O)C2` (centres undefined) gave a melting point of 139 to 145 °C. Compound `CC(=Cc1ccc2[nH]ccc2c1)C(=O)O` has a melting point of 207 to 209 °C. In the case of `CCC(O)(Cn1cncn1)C(c1ccc(Cl)cc1)n1cncn1` (centres undefined), the melting point is reported as 60 to 64 °C. With `COc1cc(COc2nn(-c3ccccc3)cc2CCc2cscn2)ccc1OCc1nc(-c2ccco2)oc1C` the melting point was 127 to 128 °C. In the case of `CCCCC1(C(=O)Nc2ccc(Oc3ccc(Cl)cc3)c(C(F)(F)F)c2)CC1`, the melting point is reported as 104 to 106 °C. Compound `CC(=O)N1CCN(C(C)=O)C1=Nc1ccc(Cl)cc1Cl` has a melting point of 113 to 115 °C. With `O=C(O)COc1ccc(SCc2ccc(OCc3ccc(F)cc3C(F)(F)F)cc2)c2c1CCC2` the melting point was 125 to 127 °C. Work on `COCCc1nc2c(N)nc3cc(-c4ccsc4)ccc3c2n1CC(C)(C)O` yielded a melting point of 233 to 234 °C. `CSc1ccc(C(=O)NCc2ccc3c(c2)C(=O)N(C2(C)CCC(=O)NC2=O)C3=O)nc1` (centres undefined) showed a melting point of 210 to 212 °C. In the case of `CC(C)(Cn1c(CO)nc2c(N)nc3ccccc3c21)C(N)=O`, the melting point is reported as 201 to 203 °C. `O=C1N(C2CCCCC2)CC(CCl)C1(c1ccccc1)c1ccccc1` (centres undefined) gave a melting point of 124 to 126 °C. Work on `CN(Cc1ccc(NC(=O)C2=Cc3cc(-c4ccc(OC5CCOCC5)cc4)ccc3S(=O)(=O)CC2)cc1)C1CCOCC1` yielded a melting point of 227 to 229 °C. With `CC(=O)Nc1ccc(C(C)(C)C)cc1F` the melting point was 164 to 165 °C. For `CC(C(=O)N1CCCC1C(=O)O)N(CC(=O)C(Cc1ccccc1)NC(=O)c1ccccc1)C(=O)OCc1ccccc1` (centres undefined), the melting point was 70 to 91 °C. Compound `O=C(O)c1ccc2c(c1)nc(-c1ccc(OC(c3cccc(F)c3)c3cccc(F)c3)cc1F)n2C1CCCCC1` has a melting point of 242 to 243 °C. Compound `N#Cc1ccccc1CSc1nc2cnccc2[nH]1` has a melting point of 200 to 202 °C. `Cc1cc(O)c(SCc2ccc(Cl)cc2Cl)c(=O)o1` gave a melting point of 163 to 164 °C. `Cc1c(CO)c(CO)c2n1Cc1ccccc1C2` showed a melting point of 99 to 101 °C. `CC(C)(C)c1ccc(S(=O)(=O)NCCCCOc2ccc(-n3ccnc3)cc2)cc1` showed a melting point of 138 to 140 °C. For `CCOC(=O)c1cc2c(OC)cc3c(c2n1Cc1ccccc1)CCCC3`, the melting point was 86 to 88 °C. Work on `CC(O)c1ccc(Nc2nccc(-c3cccnc3)n2)cc1` (centres undefined) yielded a melting point of 145 to 147 °C. For `CON=C[C@H]1NC(=O)[C@H]1NC(=O)OCc1ccccc1`, the melting point was 170 to 171 °C. Work on `N=C(NCc1cccc(F)c1)N[N+](=O)[O-]` yielded a melting point of 177 to 179 °C. For `O=C(c1cccnc1)c1cccs1`, the melting point was 90 to 91.5 °C. For `CC(C)(OCc1nn(Cc2ccccc2)c2ccc(Br)cc12)C(=O)O`, the melting point was 168 to 170 °C. For `O=C(Nc1nc2ccccc2c(=O)n1-c1ccccc1)c1ccccc1`, the melting point was 185 to 188 °C. With `Cc1nnc2n1-c1ccc([N+](=O)[O-])cc1C(c1ccccc1Cl)=NC2` the melting point was 231 to 233 °C. `O=C(Nc1c(Cl)cncc1Cl)c1ccc(OC(F)F)c2oc3ccc(C(F)(F)F)cc3c12` showed a melting point of 228 °C. Compound `Cc1nc2c(OCc3ccccc3F)cccn2c1CO` has a melting point of 151 to 153 °C. Compound `CN(C)C(=O)Nc1cc(C(F)(F)F)on1` has a melting point of 126 °C. `CCn1nc(OCC(=O)C(C)(C)C)c(-c2ccc(F)cc2)c1-c1ccc(S(C)(=O)=O)cc1` gave a melting point of 144 to 146 °C. With `c1cn2cnnc2c2cc3c(cc12)OCO3` the melting point was 267 to 269 °C. `Cc1cccc(NC(=O)NCC(=O)N(CC(=O)OC(C)(C)C)c2ccccc2C(=O)N2CCCC(C)(C)C2)c1` showed a melting point of 207 °C. With `Cn1nc(N2c3cc(F)ccc3CC2C(=O)N2CCCCCC2)ccc1=O` (centres undefined) the melting point was 204 to 207 °C. Work on `COc1cnc(Cl)nc1NS(=O)(=O)c1cccc(Cl)c1Cl` yielded a melting point of 244 to 245 °C. `CC(C)C(=O)CCC(C)C1CCC2(C#N)C3=CCC4CC(OC(=O)c5ccccc5)CCC4(C)C3CCC12C` (centres undefined) showed a melting point of 168 to 169 °C. `Cc1cc(N)nc(-c2ccncc2)n1` showed a melting point of 192 to 194 °C. Work on `CC(Oc1cnn(-c2ccc(Cl)cc2)c(=O)c1Cl)c1ccc(Cl)cc1` (centres undefined) yielded a melting point of 135 to 138 °C. In the case of `Cn1c(C(F)(F)F)cc(=O)n(-c2c(F)cc(Cl)c3cc(-c4ccccc4)oc23)c1=O`, the melting point is reported as 215 to 216 °C. `CC(=O)N[C@@H](C)COc1ccc2nc(-c3cc(F)c(OCC4CC4)c(F)c3)oc2c1F` gave a melting point of 146 to 147 °C. For `O=C1O[C@@H](CO)CN1c1ccc(N2C[C@@H]3C[C@H]2CS3)c(F)c1`, the melting point was 156 to 157 °C. For `CCCCCCCNC(=O)N(C)c1cccc(-c2ccc(C=C(OCC)C(=O)O)cc2OCCCC)c1`, the melting point was 103 °C. `CC(C)CC1(CC(=O)NO)C(=O)N(CCc2ccccc2)C(=O)N1C` (centres undefined) gave a melting point of 127 to 129 °C. For `CCCn1c(=O)c2[nH]c(C3CCCC3)nc2n(CCc2ccc(NC(C)=O)cc2)c1=O`, the melting point was > 270 °C. `CC1=NC(=Cc2cccc(-c3ccc(Cl)cc3)c2)C(=O)O1` gave a melting point of 150 °C. For `O=C(Nc1ccc(-n2nc(C(F)(F)F)cc2C(F)(F)F)cc1)c1cccc(I)c1`, the melting point was 192 to 193 °C. In the case of `Cc1ccc2ccc(C(=O)O)nc2c1`, the melting point is reported as 160 to 162 °C. Compound `CN(c1cccnc1S(N)(=O)=O)S(=O)(=O)CF` has a melting point of 160 to 162 °C. For `Fc1ccc(-c2ccc(N3CCCN(c4ccc(-c5ccc(F)cc5)cn4)CC3)nc2)cc1`, the melting point was 268 to 270 °C. `CCS(=O)c1cc2c(cc1OC)CCn1c-2cc2c1C(=O)N(C(C)(C)C)CCCC2` (centres undefined) showed a melting point of 185 to 187 °C. Work on `O=C(O)COCC(=O)NCCCCCCCNC(=O)OCc1ccccc1` yielded a melting point of 74 to 74.5 °C. For `C#CCOc1ccc(S(=O)(=O)C2(C(=O)O)CCN(Cc3ccc(Cl)cc3)CC2)cc1`, the melting point was 205 °C. `Nc1ccc(OCOc2ccc(N)cc2[N+](=O)[O-])c([N+](=O)[O-])c1` showed a melting point of 181 °C. For `C[C@]1(CN2CCN(C(=O)OCc3ccc(C(F)(F)F)cc3)CC2)Cn2cc([N+](=O)[O-])nc2O1`, the melting point was 140 to 142 °C. For `COc1ccc(/C=C(\C#N)c2ccc3ccccc3c2)cc1OC1CCCC1`, the melting point was 147 to 148 °C. For `COc1ccc([N+](=O)[O-])c(Oc2cc(C)[nH]n2)n1`, the melting point was 133 to 136 °C. For `OC1=Cc2ccccc2C=Cc2cc(Br)ccc21`, the melting point was 148 to 151 °C. Compound `COc1ccc(-c2ccc(C(=O)Nc3ccc4cc(CN5CCCCC5)cnc4c3C)cc2F)cc1` has a melting point of 148 to 149 °C. Work on `Oc1ccc(-c2nc(-c3cccs3)c[nH]2)cc1Cl` yielded a melting point of 152 to 153 °C. `CN1CCN(c2nc3sc4c(NCCc5ccccn5)ncnc4c3c3c2COC(C)(C)C3)CC1` gave a melting point of 227 to 229 °C. Work on `Nc1ccc(Nc2cccc3c2C(=O)c2ccccc2C3=O)cc1` yielded a melting point of 175 to 182 °C. In the case of `CCOC(=O)C=Cc1ccc2c(c1)c(-c1cc3cccnc3n1S(=O)(=O)c1ccc(C)cc1)cn2C`, the melting point is reported as 159 to 162 °C. Compound `CCCCNC(=O)c1cn2nc(N3CCN(C(=O)c4ccccc4C(F)(F)F)CC3)ccc2n1` has a melting point of 187 to 189 °C. With `Cc1c[nH]c(=O)n(C(=O)c2ccccc2)c1=O` the melting point was 178 to 180 °C. Compound `COc1ccc(-c2ccc(C(=O)O)cc2)c2c1OCCO2` has a melting point of 281 to 284 °C. `NS(=O)(=O)c1ccc(-c2cccc(-c3nc(-c4ccc(C(F)(F)F)c(F)c4)cc(C(F)(F)F)n3)c2)s1` gave a melting point of 214 °C. `Oc1cc2c(nn1)CCCCCCCCCC2` gave a melting point of 188 to 189 °C. `CS(=O)(=O)N1CCC(NC(=O)Nc2cccc(C(F)(F)F)c2)CC1` showed a melting point of 226 to 229 °C. For `O=S1(=O)N=C2CCCN2c2ccc(O)cc21`, the melting point was > 300 °C. With `O=S1(=O)CCC(c2cc(F)ccc2F)(S(=O)(=O)c2ccc(Cl)cc2)CC1` the melting point was 204 to 206 °C. Compound `CCOC(=O)C(=O)CC(=O)c1cn(Cc2ccc(F)cc2)c2ccc(F)cc2c1=O` has a melting point of 152 to 153 °C. Work on `CC(=O)N1CCC(Oc2ccc(C(F)(F)F)cc2)(c2ccccc2)CC1` yielded a melting point of 96 to 100 °C. `CCCCc1cc(C#N)sc1-c1ccc2c(c1)C(C)(C)OC(=O)N2` gave a melting point of 167 to 168 °C. Compound `CC(C)(Oc1ccc(C(=O)c2ccccc2)cc1)C(=O)O` has a melting point of 130 °C. With `Cc1ccccc1Sc1cccc(CO)c1O` the melting point was 75 to 77 °C. With `CCc1[nH]n(C2CCCC2)c2nc(-c3ccc(-n4ccnc4)cc3)nc(=O)c1-2` the melting point was > 300 °C. In the case of `N#Cc1ccc(-c2cncc(OC3SCC(O)C(O)C3O)c2)cc1C#N` (centres undefined), the melting point is reported as 192 °C. Work on `CC(C)c1c(Sc2cccc(Cl)c2)nc(CO)n1C` yielded a melting point of 105 to 106 °C. Compound `Cc1ccc(SC(CCCCCc2ccc(Cl)cc2)C(=O)O)cc1` (centres undefined) has a melting point of 58 to 61 °C. In the case of `CC1(C)CCC(C)(C)C2=C1CC(C(=O)Oc1ccc(C(=O)O)cc1)C2`, the melting point is reported as 194 to 195 °C. For `CNC(=O)NCCn1c(-c2ccc(CN3CCOCC3)cc2OC)csc1=Nc1ccc(F)c(C)c1`, the melting point was 158 to 162 °C. With `Cc1ccc(-c2nc(C)c(-c3ccnc(Nc4ccc(N5CCOCC5)cc4)n3)s2)c(C)c1` the melting point was 191 to 192 °C. For `COc1ccc(CNc2n[nH]c3ncnc(Nc4cccc(Cl)c4)c23)c(OC)c1OC`, the melting point was 168 to 169 °C. Compound `CCc1c(CCC(=O)O)ccc2c1OCO2` has a melting point of 127 to 128 °C. Work on `Cc1c(C)c2c(c(C)c1O)C(CBr)C(C)(C)O2` (centres undefined) yielded a melting point of 79 to 80 °C. In the case of `Oc1nc2ccc3cn[nH]c3c2nc1O`, the melting point is reported as > 300 °C. For `COc1cccc2oc(Cn3nc(-c4ccc(OC(C)C)c(F)c4)c4c(N)ncnc43)c(-c3cccc(F)c3)c(=O)c12`, the melting point was 145 to 148 °C. With `C[C@H]1CCCC(C)(C)[C@@H]1C(=O)O` the melting point was 44 to 54 °C. `CCOC(=O)C1=C(C(=O)OCC)SCCS1` showed a melting point of 32 to 36 °C. In the case of `CC(C)c1ccc([N+](=O)[O-])c(C(C)C)c1NC(=O)CN1CCN(CCCSc2nc3ccccc3o2)CC1`, the melting point is reported as 156 to 158 °C.
